Experimental findings from ChEMBL document CHEMBL1201862, “PubChem BioAssay data set” (2004) are described below.

The structures appear in SMILES notation.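 These data come from cells grown in 96-well plates and exposed to compound for 48 hours at five concentrations. GI50 = concentration required for 50% inhibition of growth.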 The source made the active and inactive calls. Cut-off read from the data, not from the text of the source: active = GI50 up to about 1.1 µM and inactive = higher.

Among the test systems are A498; SNB-19; MDA-MB-435; U-251; UACC-257; HCT-116; CAKI-1; MDA-N; M14; OVCAR-8; T47D; DU-145; MDA-MB-231; HCT-15; NCI-H226; IGROV-1; UACC-62; K562; CCRF-CEM.
What all share (test): NCI anticancer screen, dose series, 48 h

On to `CSc1c(C#N)c(O)n(-c2ccc(Cl)cc2)c(=O)c1C#N`, for which the GI50 in the assay on A498 is 45.2 µM (inactive); in the assay on SNB-19, > 100 µM (inactive); in the assay on MDA-MB-435, > 100 µM (inactive); in the assay with U-251 it was > 100 µM (inactive); in the assay on UACC-257, > 100 µM (inactive); in the assay on HCT-116, 63.5 µM (inactive). The GI50 with CAKI-1 was 49.4 µM (inactive); with MDA-N, > 100 µM (inactive); in the assay with M14, > 100 µM (inactive); in the assay with OVCAR-8, > 100 µM (inactive); in the assay with T47D, 64.9 µM (inactive); in the assay on DU-145, > 100 µM (inactive). The GI50 with MDA-MB-231 was > 100 µM (inactive); in the assay with HCT-15, 97.9 µM; with NCI-H226, 48.1 µM (inactive); in the assay on IGROV-1, > 100 µM (inactive); in the assay with UACC-62, 44.6 µM (inactive); with K562, 35.6 µM (inactive).

In the case of `COc1cc(OC)c(/C=C\c2ccnc3ccccc23)c(OC)c1`, the GI50 with CCRF-CEM is 1.7 µM (inactive); with A498 it was 2.88 µM (inactive); in the assay on SNB-19 it was 5.5 µM (inactive); in the assay on MDA-MB-435, 0.404 µM (active); in the assay with U-251, 3.81 µM (inactive); with UACC-257 it was 3.75 µM (inactive). The GI50 is 2.5 µM (inactive) in the assay on HCT-116; 6.93 µM (inactive) in the assay with CAKI-1; 0.329 µM (active) with MDA-N; 3.4 µM (inactive) in the assay on M14; 3.12 µM (inactive) with T47D; 5.37 µM (inactive) in the assay on DU-145. Also, the GI50 in the assay on MDA-MB-231 is 3.05 µM (inactive); in the assay on HCT-15, 0.794 µM; in the assay on NCI-H226, 4.11 µM (inactive); in the assay on IGROV-1, 1.45 µM (inactive); with UACC-62 it was 2.49 µM (inactive); in the assay on K562, 0.433 µM (active).

As for `CNC(=O)C1(N)c2ccccc2C=Cc2ccccc21`, the GI50 in the assay with CCRF-CEM, in the assay with A498, in the assay on SNB-19, with MDA-MB-435, in the assay with U-251 and in the assay on HCT-116 was > 100 µM (inactive) in each case. Besides, the GI50 in the assay with CAKI-1, with MDA-N, in the assay with M14, with OVCAR-8, in the assay on T47D and in the assay with DU-145 was > 100 µM (inactive) each time. For the same compound, the GI50 in the assay on MDA-MB-231 is > 100 µM (inactive); with HCT-15, greater than 100 µM; in the assay on NCI-H226, > 100 µM (inactive); in the assay on IGROV-1 it was > 100 µM (inactive); with UACC-62, > 100 µM (inactive); in the assay with K562, > 100 µM (inactive).

In the case of `C[C@@H]1C[C@H]2[C@@H]3CCC4=CC(=O)C=C[C@]4(C)[C@@]3(Cl)[C@@H](Cl)C[C@]2(C)[C@@]1(O)C(=O)COP(=O)(O)O`, the GI50 is > 100 µM (inactive) in the assay with A498; > 100 µM (inactive) in the assay on SNB-19; > 100 µM (inactive) in the assay with MDA-MB-435; > 100 µM (inactive) in the assay on U-251; > 100 µM (inactive) in the assay with UACC-257; 89.3 µM (inactive) in the assay on HCT-116. Moreover, the GI50 with CAKI-1 is > 100 µM (inactive); in the assay on MDA-N, 56.2 µM (inactive); in the assay on M14 it was > 100 µM (inactive); in the assay with OVCAR-8 it was > 100 µM (inactive); in the assay on T47D, > 100 µM (inactive); in the assay with DU-145 it was > 100 µM (inactive). Also, the GI50 in the assay with MDA-MB-231 is > 100 µM (inactive); with HCT-15, greater than 100 µM; in the assay with NCI-H226, > 100 µM (inactive); in the assay with IGROV-1, > 100 µM (inactive); in the assay on UACC-62, > 100 µM (inactive); with K562, 7.41 µM (inactive).

Turning to `C[C@]12CCC(=O)[C@@H](CCC3=CC(=O)C=CC3=O)[C@@H]1CCC2=O`, the GI50 in the assay with CCRF-CEM was 1.87 µM (inactive); with A498, 17.5 µM (inactive); in the assay with SNB-19 it was 41.5 µM (inactive); in the assay with MDA-MB-435 it was 22 µM (inactive); in the assay with U-251, 20.7 µM (inactive); in the assay on UACC-257, 17.8 µM (inactive). In addition, the GI50 is 15.5 µM (inactive) with HCT-116; 12.7 µM (inactive) in the assay on CAKI-1; 23.8 µM (inactive) in the assay on MDA-N; 17.8 µM (inactive) in the assay on M14; 16.1 µM (inactive) with OVCAR-8; 9.23 µM (inactive) with T47D. Also, the GI50 in the assay with DU-145 was 17.9 µM (inactive); with MDA-MB-231, 20.3 µM (inactive); in the assay on HCT-15, 17.4 µM; in the assay with NCI-H226 it was 20.7 µM (inactive); in the assay on UACC-62 it was 16.6 µM (inactive); in the assay on K562, 2.14 µM (inactive).

`CC1(C)CC(=O)c2c(nc3c4c([nH]c(-c5ccc(Br)cc5)c24)CC(C)(C)C3)C1`: the GI50 with CCRF-CEM is 16.9 µM (inactive); with A498 it was 13.6 µM (inactive); with SNB-19 it was 70.3 µM (inactive); in the assay with MDA-MB-435, 29.7 µM (inactive); in the assay on U-251, 23.8 µM (inactive); in the assay on UACC-257, 66.7 µM (inactive). The GI50 was 36.3 µM (inactive) in the assay with HCT-116; 50.4 µM (inactive) in the assay on CAKI-1; 40.3 µM (inactive) in the assay on MDA-N; 36.6 µM (inactive) in the assay on M14; 49.8 µM (inactive) with OVCAR-8; 23.2 µM (inactive) in the assay on T47D. Besides, the GI50 in the assay with DU-145 was 65.3 µM (inactive); with MDA-MB-231 it was 44 µM (inactive); in the assay on HCT-15 it was 31.3 µM; in the assay with NCI-H226, 40.8 µM (inactive); with UACC-62 it was 53.6 µM (inactive); in the assay on K562 it was 18.2 µM (inactive).

As for `Cc1ccc2c(c1)-c1nc(N)c(C#N)c(-c3ccc(Cl)cc3)c1CCS2(=O)=O`, the GI50 is 20.7 µM (inactive) in the assay on CCRF-CEM; 24.6 µM (inactive) in the assay with A498; 50.6 µM (inactive) with SNB-19; 31.3 µM (inactive) with MDA-MB-435; 40 µM (inactive) with U-251; 45.6 µM (inactive) in the assay on UACC-257. The GI50 is 33 µM (inactive) in the assay with HCT-116; 38.5 µM (inactive) with CAKI-1; 39.3 µM (inactive) in the assay on MDA-N; 32 µM (inactive) with OVCAR-8; 33.2 µM (inactive) in the assay on T47D; 53.8 µM (inactive) in the assay on DU-145. Further, the GI50 in the assay on MDA-MB-231 was 27.1 µM (inactive); with HCT-15, 43.2 µM; in the assay with NCI-H226, 28.4 µM (inactive); with IGROV-1 it was 43.1 µM (inactive); in the assay with UACC-62, 28.2 µM (inactive).

`CN(C)Cc1cc(C(=O)/C=C/c2ccc([N+](=O)[O-])cc2)cc(CN(C)C)c1O`: the GI50 in the assay with CCRF-CEM was 3.3 µM (inactive); in the assay with A498 it was 11 µM (inactive); in the assay with SNB-19, 83.4 µM (inactive); in the assay on MDA-MB-435 it was 7.1 µM (inactive); in the assay with U-251 it was 3.18 µM (inactive); in the assay with UACC-257 it was 14.1 µM (inactive). The GI50 was 2.86 µM (inactive) in the assay on HCT-116; 11.7 µM (inactive) in the assay with MDA-N; 9.23 µM (inactive) with M14; 25 µM (inactive) in the assay on OVCAR-8; 13.4 µM (inactive) with T47D; 11 µM (inactive) in the assay with DU-145. Further, the GI50 in the assay on MDA-MB-231 is 14.9 µM (inactive); in the assay on HCT-15, 10.1 µM; with NCI-H226 it was 3.9 µM (inactive); with IGROV-1 it was 12.2 µM (inactive); in the assay with UACC-62, 13.9 µM (inactive); in the assay on K562, 4.13 µM (inactive).

`NC(=O)c1ccc(C(=O)Nc2ccc([As](=O)(O)O)cc2)cc1`: the GI50 in the assay on CCRF-CEM, in the assay with A498, in the assay on SNB-19, in the assay on MDA-MB-435, in the assay with U-251 and with HCT-116 was > 100 µM (inactive) throughout. For the same compound, the GI50 in the assay on CAKI-1, in the assay with MDA-N, in the assay with M14, with OVCAR-8, in the assay on T47D and in the assay with DU-145 was > 100 µM (inactive) in each case. The GI50 was > 100 µM (inactive) in the assay on MDA-MB-231; greater than 100 µM with HCT-15; > 100 µM (inactive) in the assay on NCI-H226; > 100 µM (inactive) in the assay with IGROV-1; > 100 µM (inactive) in the assay on UACC-62; > 100 µM (inactive) with K562.

With `S=C(CSc1ccccc1)Nc1cccc2ccccc12`, the GI50 is 23.1 µM (inactive) with A498; 76.9 µM (inactive) with SNB-19; 34.1 µM (inactive) in the assay with MDA-MB-435; 38.8 µM (inactive) in the assay with U-251; 22.3 µM (inactive) with UACC-257; 35 µM (inactive) with HCT-116. Moreover, the GI50 was 59 µM (inactive) in the assay on CAKI-1; 40.7 µM (inactive) in the assay with MDA-N; 54.2 µM (inactive) in the assay with M14; 67 µM (inactive) in the assay with OVCAR-8; 40.3 µM (inactive) with T47D; > 100 µM (inactive) in the assay with DU-145. The GI50 was 80.2 µM (inactive) in the assay with MDA-MB-231; 48.4 µM with HCT-15; 42 µM (inactive) in the assay with NCI-H226; 72.8 µM (inactive) in the assay on IGROV-1; 32.7 µM (inactive) with UACC-62; 40.2 µM (inactive) in the assay with K562.

As to `O=C(Nc1ccccc1)c1cc(S(=O)(=O)Nc2n[nH]c(=O)n2-c2ccccc2)c(S)cc1Cl`, the GI50 in the assay with A498, in the assay on SNB-19, in the assay with MDA-MB-435, in the assay on U-251, with UACC-257 and in the assay with HCT-116 was > 100 µM (inactive) each time. For the same compound, the GI50 in the assay on CAKI-1, in the assay on MDA-N, with M14, in the assay on OVCAR-8, in the assay with T47D and in the assay on DU-145 was > 100 µM (inactive) in each case. Besides, the GI50 in the assay with MDA-MB-231 was > 100 µM (inactive); in the assay with HCT-15, greater than 100 µM; in the assay on NCI-H226, > 100 µM (inactive); in the assay with IGROV-1, > 100 µM (inactive); with UACC-62 it was > 100 µM (inactive); in the assay on K562, > 100 µM (inactive).
